ChEMBL document CHEMBL5252612, “A novel selective estrogen receptor degrader induces cell cycle arrest in breast cancer via ERα degradation and the autophagy-lysosome pathway” (Bioorg Med Chem, 2023)
Activity calls are given as the source filed them. The calls are words filed in the database; no cut-off is given here.

Assays:
[1] = system: T47D; experiment: Anticancer activity against ER-alpha positive human T47D cells assessed as reduction in cell viability measured after 48 hrs by CCK8 assay; format: functional, cell-based
[2] = system: MCF7; experiment: Anticancer activity against ER-alpha positive human MCF7 cells assessed as reduction in cell viability measured after 48 hrs by CCK8 assay; format: functional, cell-based
[3] = system: MCF7; experiment: Induction of cell cycle arrest in human MCF7 cells assessed as proportion of cells at G1 phase at 1 uM incubated for 24 hrs by flow cytometry (reference value: 46.3%); format: functional
[4] = system: MCF7; experiment: Induction of cell cycle arrest in human MCF7 cells assessed as proportion of cells at G2 phase at 1 uM incubated for 24 hrs by flow cytometry (reference value: 25.5%); format: functional
[5] = system: MCF7; experiment: Induction of cell cycle arrest in human MCF7 cells assessed as proportion of cells at G2 phase at 5 uM incubated for 24 hrs by flow cytometry (reference value: 25.5%); format: functional
[6] = system: T47D; experiment: Induction of apoptosis and necrosis in human T47D cells assessed as live cells at 10 uM incubated for 48 hrs by AnnexinV-FITC/PI staining based flow cytometry (reference value: 96.26%); format: functional
[7] = system: T47D; experiment: Induction of apoptosis and necrosis in human T47D cells incubated for 48 hrs by AnnexinV-FITC/PI staining based flow cytometry (reference value: 3.73%); format: functional
[8] = system: T47D; experiment: Induction of apoptosis in human T47D cells at 10 uM incubated for 48 hrs by TUNEL assay; format: functional, cell-based
[9] = Toxicity in BALB/c nude mouse xenografted with human MCF7 cells assessed as liver cell morphological changes at 2 to 4 mg/kg, ip administered every other day by Hematoxylin and eosin staining based analysis; format: organism-based; settings: in vivo, dose 2-4 mg/kg
[10] = Toxicity in BALB/c nude mouse xenografted with human MCF7 cells assessed as kidney cell morphological changes at 2 to 4 mg/kg, ip administered every other day by Hematoxylin and eosin staining based analysis; format: organism-based; settings: in vivo, dose 2-4 mg/kg
[11] = molecular target: T1, Estrogen receptor (Homo sapiens) (UniProt P03372); experiment: Induction of ER-alpha degradation in human T47D cells assessed as decrease in ER-alpha protein expression in presence of proteasome inhibitor, MG132 by western blot analysis; format: cell-based
T1 sequence (whole entry): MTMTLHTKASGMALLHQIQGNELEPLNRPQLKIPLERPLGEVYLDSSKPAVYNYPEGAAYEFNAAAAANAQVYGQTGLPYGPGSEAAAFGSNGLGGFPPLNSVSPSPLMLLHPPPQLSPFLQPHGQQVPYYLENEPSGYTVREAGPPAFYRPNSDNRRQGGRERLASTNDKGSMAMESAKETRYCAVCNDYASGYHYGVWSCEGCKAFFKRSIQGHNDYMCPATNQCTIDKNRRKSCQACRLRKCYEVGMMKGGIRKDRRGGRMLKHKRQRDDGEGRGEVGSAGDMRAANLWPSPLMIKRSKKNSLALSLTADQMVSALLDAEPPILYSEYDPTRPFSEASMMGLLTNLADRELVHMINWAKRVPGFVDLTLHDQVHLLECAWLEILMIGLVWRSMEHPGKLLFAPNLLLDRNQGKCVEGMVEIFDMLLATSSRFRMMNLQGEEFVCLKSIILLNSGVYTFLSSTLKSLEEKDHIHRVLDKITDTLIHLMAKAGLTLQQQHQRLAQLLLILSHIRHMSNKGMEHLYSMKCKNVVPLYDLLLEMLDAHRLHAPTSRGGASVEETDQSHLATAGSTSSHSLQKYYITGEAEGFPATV

[12] = system: T47D; experiment: Induction of autophagy in human T47D cells assessed as increase in LC3 protein expression at 5 to 10 uM incubated for 24 hrs by western blot analysis; format: functional, cell-based; settings: dose 5-10 µM
[13] = system: T47D; experiment: Induction of autophagy in human T47D cells assessed as decrease in p62 protein expression at 5 to 10 uM incubated for 24 hrs by western blot analysis; format: functional, cell-based; settings: dose 5-10 µM
[14] = system: T47D; experiment: Induction of autophagy in human T47D cells assessed as increase in LC3 puncta formation at 1 to 10 uM incubated for 24 hrs by immunofluorescence assay; format: functional, cell-based; settings: dose 1-10 µM
[15] = system: T47D; experiment: Induction of autophagy in human T47D cells assessed as increase in number of lysosomes at 1 to 10 uM by LysoTracker dye based confocal microscopy; format: functional, cell-based; settings: dose 1-10 µM
[16] = system: T47D; experiment: Induction of autophagy in human T47D cells assessed as upregulation of CTSD protein expression at 10 uM incubated for 24 hrs by western blot analysis; format: functional, cell-based
[17] = system: T47D; experiment: Anticancer activity against ER-alpha positive human T47D cells assessed as reduction in cell viability at 10 uM measured after 48 hrs by CCK8 assay; format: functional, cell-based
[18] = system: T47D; experiment: Induction of cell cycle arrest in human T47D cells assessed as proportion of cells at G1 phase at 10 uM incubated for 24 hrs by flow cytometry (reference value: 52.6%); format: functional
[19] = system: T47D; experiment: Induction of cell cycle arrest in human T47D cells assessed as proportion of cells at S phase at 10 uM incubated for 24 hrs by flow cytometry (reference value: 27.7%); format: functional
[20] = system: T47D; experiment: Induction of cell cycle arrest in human T47D cells assessed as proportion of cells at G2 phase at 10 uM incubated for 24 hrs by flow cytometry (reference value: 17%); format: functional
[21] = system: T47D; experiment: Induction of cell cycle arrest in human T47D cells assessed as proportion of cells at G1 phase at 10 uM incubated for 24 hrs in presence of autophagy inhibitor, 3-MA by flow cytometry (reference value: 58.3%); format: functional
[22] = Downregulation of MYC expression in human T47D cells at 10 uM incubated for 12 hrs by RNA-seq analysis; format: functional
[23] = molecular target: T1, Estrogen receptor (Homo sapiens); experiment: Induction of ER-alpha degradation in human T47D cells overexpressing ER-alpha assessed as decrease in MYC protein expression at 10 uM incubated for 24 hrs by western blot analysis; format: cell-based
[24] = system: T47D; experiment: Induction of cell cycle arrest in human T47D cells transfected with empty vector assessed as proportion of cells at G2 phase at 10 uM incubated for 24 hrs by flow cytometry (reference value: 53%); format: functional
[25] = system: LCC2; experiment: Anticancer activity against ER-alpha positive human LCC2 cells assessed as reduction in cell viability at 20 uM measured after 48 hrs by CCK8 assay; format: functional, cell-based
[26] = Anticancer activity against ER-alpha positive human LCC2 cells assessed as reduction in cell viability measured after 48 hrs by CCK8 assay; format: functional, cell-based; settings: Homo sapiens, LCC2, 48 h; read-out: IC50
[27] = Induction of cell cycle arrest in tamoxifen-resistant human LCC2 cells assessed as proportion of cells at G2 phase at 5 uM by flow cytometry (reference value: 23.7%); format: functional
[28] = Induction of cell cycle arrest in tamoxifen-resistant human LCC2 cells assessed as proportion of cells at S phase at 10 uM by flow cytometry (reference value: 28.4%); format: functional
[29] = Induction of cell cycle arrest in tamoxifen-resistant human LCC2 cells assessed as proportion of cells at G2 phase at 10 uM by flow cytometry (reference value: 23.7%); format: functional
[30] = system: T47D; experiment: Induction of autophagy in human T47D cells overexpressing ESR1 assessed as increase in lysosome number by LysoTracker dye based confocal microscopy; format: functional, cell-based

Q: With `COc1ccc(N(CC(F)(F)F)S(=O)(=O)C2CC3OC2C(c2ccc(OCCN4CCCC4)cc2)=C3c2ccc(O)cc2)cc1` (configuration not stated) as the molecule, how does the Activity [1] read?
A: Dose-Dependent Effect

Q: What about the IC50 [1] of the same molecule?
A: 18.1 µM

Q: What about the Activity [2] of the same molecule?
A: Dose-Dependent Effect

Q: What about the IC50 ([2]; MCF7, 48 h) of the same molecule?
A: 16.4 µM

Q: What about the Activity [3] of the same molecule?
A: 63.7%

Q: And the Activity [4]?
A: 18.5%

Q: What about the Activity [5] of the same molecule?
A: 16.5%

Q: And the Activity [6]?
A: 93.26%

Q: And the Activity [7]?
A: 21.43%

Q: What about the Activity [8] of the same molecule?
A: Active

Q: And the Activity [9]?
A: Non-Toxic

Q: And the Activity [10]?
A: Non-Toxic

Q: What about the Activity [11] of the same molecule?
A: inactive

Q: What about the Activity [12] of the same molecule?
A: Active

Q: And the Activity [13]?
A: Active

Q: And the Activity [14]?
A: Active

Q: What about the Activity [15] of the same molecule?
A: Active

Q: What about the Activity [16] of the same molecule?
A: Active

Q: And the Activity [17]?
A: Active

Q: What about the Activity [18] of the same molecule?
A: 71.6%

Q: And the Activity [19]?
A: 10.2%

Q: What about the Activity [20] of the same molecule?
A: 16.9%

Q: And the Activity [21]?
A: 63.3%

Q: What about the “fold change (FC)” value [22] of the same molecule?
A: -1.037

Q: What about the Activity [23] of the same molecule?
A: inactive

Q: What about the Activity [24] of the same molecule?
A: 33.7%

Q: What about the Activity [25] of the same molecule?
A: Active

Q: What about the IC50 [26] of the same molecule?
A: 10.5 µM

Q: And the Activity [27]?
A: 14.5%

Q: And the Activity [28]?
A: 13.4%

Q: And the Activity [29]?
A: 13%

Q: And the Activity [30]?
A: Active
